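Cells were grown in 96-well plates and exposed to each compound for 48 hours at five concentrations; endpoints were interpolated linearly between bracketing concentrations, or set to the highest concentration if not reached. At the GI50, growth is halved. TGI is the concentration that stops growth completely.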
Tests used:
Test in all cases: NCI tumour cell line growth inhibition, 48 h
[1] = system: OVCAR-4 ovarian
[2] = system: RXF 393 renal
[3] = system: COLO 205 colon
[4] = system: HOP-92 NSCLC
[5] = system: SNB-75 CNS
[6] = system: SF-539 CNS
[7] = system: NCI/ADR-RES ovarian
[8] = system: SK-MEL-2 melanoma
[9] = system: HCC-2998 colon
[10] = system: UO-31 renal
[11] = system: HCT-15 colon

CCCCCCCCCCCCCCCC(=O)OCC1CCCN2CCCCC12 (stereo not given)
TGI [1]: > 100 µM | TGI [2]: > 100 µM | TGI [3]: > 100 µM | TGI [4]: > 100 µM | TGI [5]: > 100 µM | TGI [6]: > 100 µM | TGI [7]: > 100 µM | TGI [8]: > 100 µM | TGI [9]: > 100 µM | TGI [10]: > 100 µM | TGI [11]: > 100 µM

CC[C@H](Nc1nc(N)nc(C)c1C#N)c1nc2cccc(NCc3ccc(C(=O)NO)cc3)c2c(=O)n1-c1ccccc1
GI50 [1]: 2.01 µM | TGI [1]: 7.52 µM | GI50 [2]: 1.21 µM | TGI [2]: 3.05 µM | GI50 [3]: 2.05 µM | TGI [3]: 5.31 µM | GI50 [5]: 0.711 µM | TGI [5]: 3.97 µM | GI50 [6]: 1.56 µM | TGI [6]: 3.63 µM | GI50 [7]: 13.5 µM | TGI [7]: > 100 µM | GI50 [8]: 2.43 µM | TGI [8]: 6.21 µM | GI50 [11]: 2.29 µM | TGI [11]: 6.25 µM

CCOC(=O)Nc1cc2c(c(N)n1)N=C(c1ccccc1)[C@H](C)N2
GI50 [1]: 16.2 µM | TGI [1]: > 100 µM | TGI [3]: < 0.0001 µM | TGI [4]: 47.1 µM | GI50 [5]: 17.9 µM | GI50 [6]: 0.0269 µM | TGI [6]: 0.0669 µM | TGI [8]: 13.6 µM | GI50 [10]: 10.1 µM | TGI [10]: 44.5 µM | GI50 [11]: < 0.0001 µM | TGI [11]: 17.3 µM

O=C(N/C(=C\c1cccc([N+](=O)[O-])c1)c1nc2[nH]c(=S)[nH]c(=O)c2[nH]1)c1ccccc1
TGI [1]: > 100 µM | TGI [2]: > 100 µM | TGI [3]: > 100 µM | TGI [4]: > 100 µM | TGI [5]: > 100 µM | TGI [6]: > 100 µM | TGI [8]: > 100 µM | TGI [9]: > 100 µM | TGI [10]: > 100 µM | TGI [11]: > 100 µM

C/C(=N\Oc1cc(Cl)ncn1)c1ccccn1
TGI [1]: > 100 µM | TGI [2]: 95.7 µM | TGI [3]: > 100 µM | TGI [4]: 74.3 µM | TGI [5]: > 100 µM | TGI [6]: > 100 µM | TGI [7]: > 100 µM | TGI [8]: > 100 µM | TGI [9]: 72.1 µM | TGI [10]: > 100 µM

NC(=S)Nc1cc(Cl)ccc1Cl
TGI [1]: > 100 µM | TGI [2]: > 100 µM | TGI [3]: > 100 µM | TGI [4]: > 100 µM | TGI [5]: > 100 µM | TGI [6]: > 100 µM | TGI [8]: > 100 µM | TGI [9]: > 100 µM | TGI [10]: > 100 µM | TGI [11]: > 100 µM

CC(=O)OC/C=C/Cn1ncc(=O)[nH]c1=O
TGI [2]: > 100 µM | TGI [3]: > 100 µM | TGI [4]: > 100 µM | TGI [5]: > 100 µM | TGI [6]: > 100 µM | TGI [7]: > 100 µM | TGI [8]: > 100 µM | TGI [9]: > 100 µM | TGI [10]: > 100 µM | TGI [11]: > 100 µM

CC(C)OC(=O)C1=C(O)c2ccccc2S(=O)(=O)N1
TGI [1]: > 100 µM | TGI [3]: > 100 µM | TGI [5]: > 100 µM | TGI [6]: > 100 µM | TGI [8]: > 100 µM | TGI [9]: > 100 µM | TGI [11]: > 100 µM

O=C(CCl)NC(Cc1ccc(F)cc1)C(=O)O (stereo not given)
TGI [1]: > 100 µM | TGI [3]: > 100 µM | TGI [4]: > 100 µM | TGI [5]: > 100 µM | TGI [6]: > 100 µM | TGI [7]: > 100 µM | TGI [8]: > 100 µM | TGI [9]: > 100 µM | TGI [10]: > 100 µM | TGI [11]: > 100 µM

CCOC(=O)[C@H]1Nc2c(cccc2[N+](=O)[O-])[C@H]2OCC[C@@H]12
TGI [1]: > 100 µM | TGI [2]: > 100 µM | TGI [3]: > 100 µM | TGI [5]: > 100 µM | TGI [6]: > 100 µM | TGI [8]: > 100 µM | TGI [9]: > 100 µM | TGI [10]: > 100 µM | TGI [11]: > 100 µM

Cc1ccc(C[P+]2(c3ccccc3)CCCCC2)cc1
TGI [1]: > 100 µM | TGI [2]: > 100 µM | TGI [3]: 30.2 µM | TGI [5]: 76.9 µM | TGI [6]: > 100 µM | TGI [8]: 80.6 µM | TGI [9]: 60.8 µM | TGI [10]: > 100 µM | TGI [11]: > 100 µM

Cc1ccc(S(=O)(=O)N/N=c2\c(C)c(C3=NS(=O)(=O)c4cc(S(N)(=O)=O)c(Cl)cc4N3)oc3c(Cl)cc(Cl)cc23)cc1
TGI [1]: > 100 µM | TGI [2]: > 100 µM | TGI [3]: 47.8 µM | TGI [4]: > 100 µM | TGI [5]: > 100 µM | TGI [6]: > 100 µM | TGI [8]: > 100 µM | TGI [9]: > 100 µM | TGI [10]: > 100 µM | TGI [11]: > 100 µM

COc1cc(N/N=C/C#N)cc(OC)c1OC
TGI [1]: > 10 µM | TGI [2]: > 10 µM | TGI [3]: > 10 µM | TGI [5]: > 10 µM | TGI [6]: > 10 µM | TGI [7]: > 10 µM | TGI [8]: > 10 µM | TGI [9]: > 10 µM | TGI [10]: > 10 µM | TGI [11]: > 10 µM

O=C1Nc2ccccc2S/C1=C\c1ccccc1C(F)(F)F
TGI [1]: 49.4 µM | TGI [2]: > 100 µM | TGI [3]: > 100 µM | TGI [4]: > 100 µM | TGI [5]: 92.3 µM | TGI [6]: > 100 µM | TGI [7]: > 100 µM | TGI [8]: > 100 µM | TGI [10]: > 100 µM | TGI [11]: > 100 µM

CC1CCC(O)(C(C)(C(=O)O)c2ccccc2)CC1 (stereo not given)
TGI [1]: > 100 µM | TGI [2]: > 100 µM | TGI [4]: > 100 µM | TGI [7]: > 100 µM | TGI [8]: > 100 µM | TGI [10]: > 100 µM | TGI [11]: > 100 µM

Nc1nncc2c1ccn2C1OC(CO)C(O)C1O (stereo not given)
TGI [1]: > 100 µM | TGI [2]: > 100 µM | TGI [3]: > 100 µM | TGI [4]: > 100 µM | TGI [5]: > 100 µM | TGI [6]: > 100 µM | TGI [8]: > 100 µM | TGI [9]: > 100 µM | TGI [10]: > 100 µM | TGI [11]: > 100 µM

O=C(O)NCc1ccccc1 (tested in a mixture with another compound)
TGI [1]: > 95.8 µM | TGI [2]: > 75.5 µM | TGI [3]: 43.3 µM | TGI [4]: 67.2 µM | TGI [5]: 60.6 µM | TGI [6]: > 100 µM | TGI [7]: > 90 µM | TGI [8]: 33.7 µM | TGI [9]: 51.6 µM | TGI [10]: 91.9 µM | TGI [11]: > 100 µM

C=C1CC[C@@H](Br)C(C)(C)[C@]12CCC(C)(O)C(Cl)C2 (stereo not given in full)
TGI [2]: 34.2 µM | TGI [3]: 29.6 µM | TGI [4]: 46.3 µM | TGI [5]: 78.1 µM | TGI [8]: 39.7 µM | TGI [9]: 38.2 µM | TGI [10]: 32 µM | TGI [11]: 30.4 µM

Cc1cc2c(cc1C)[n+](=O)c(C#N)c(Cl)n2[O-]
TGI [1]: 31.2 µM | TGI [2]: 26.4 µM | TGI [3]: 21.7 µM | TGI [4]: 30.3 µM | TGI [5]: 45.2 µM | TGI [6]: 28.2 µM | TGI [7]: 42.3 µM | TGI [8]: 92.5 µM | TGI [9]: 23.7 µM | TGI [10]: 32.2 µM | TGI [11]: 16.7 µM

CCC1CN2CCC1CC2 (stereo not given)
TGI [1]: > 100 µM | TGI [2]: > 100 µM | TGI [3]: > 100 µM | TGI [5]: > 100 µM | TGI [6]: > 100 µM | TGI [7]: > 100 µM | TGI [8]: > 100 µM | TGI [9]: > 100 µM | TGI [10]: > 100 µM | TGI [11]: > 100 µM

CC(=O)O[C@H]1CC[C@@]2(C)C(=CC[C@@H]3[C@@H]2CC[C@]2(C)Nc4c(cnn4S(C)(=O)=O)C[C@@H]32)C1
TGI [2]: 92.2 µM | TGI [3]: > 100 µM | TGI [4]: > 100 µM | TGI [5]: > 100 µM | TGI [7]: > 100 µM | TGI [8]: > 100 µM | TGI [9]: > 100 µM | TGI [10]: > 100 µM | TGI [11]: > 100 µM

Source: PubChem BioAssay (NCI)
